Experimental data taken from PubChem BioAssay AID248 (DTP/NCI, 2004).
Values joined by “and” are separate entries in the source; they are usually repeats but may differ in a detail not shown here. Identical values can stand only once. Toxic doses and inconclusive results are not listed. Rule as the data show it: active = T/C of 150% or more; inactive = T/C below 125%. Square brackets hold non-standard residues; d marks the D form. Peptide text beside a SMILES is read from it. * marks the point of attachment. ξ: configuration not given here. ξF = NC(Cc1ccccc1)C(=O)O; Cbz = O=C(OCc1ccccc1)*

Tested on: L1210 leukemia ip in BDF1 mice, survival T/C
Assay: NCI In Vivo Anticancer Drug Screen. Data for tumor model L1210 Leukemia (intraperitoneal) in B6D2F1 (BDF1) mice
Conditions: endpoint: mean survival time, higher = longer survival
Procedure, shortened: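 Tumor was transplanted into mice, which were then dosed with test compound or vehicle alone. Survival was recorded for each group, and the treated figure was expressed relative to the control figure.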

[1] = dose: 100.0 mg/kg/injection, schedule: Q01DX001 (ip), vehicle: saline
[2] = dose: 200.0 mg/kg/injection, schedule: Q01DX001 (ip), vehicle: saline
[3] = dose: 100.0 mg/kg/injection, schedule: Q01DX009 (ip), vehicle: saline with Tween-80
[4] = dose: 100.0 mg/kg/injection, schedule: Q04DX003 (ip), vehicle: saline with Tween-80
[5] = dose: 200.0 mg/kg/injection, schedule: Q01DX009 (ip), vehicle: saline with Tween-80
[6] = dose: 200.0 mg/kg/injection, schedule: Q04DX003 (ip), vehicle: saline with Tween-80
[7] = dose: 400.0 mg/kg/injection, schedule: Q01DX009 (ip), vehicle: saline with Tween-80
[8] = dose: 400.0 mg/kg/injection, schedule: Q04DX003 (ip), vehicle: saline with Tween-80
[9] = dose: 100.0 mg/kg/injection, schedule: Q04DX002 (ip), vehicle: saline
[10] = dose: 200.0 mg/kg/injection, schedule: Q04DX002 (ip), vehicle: saline
[11] = dose: 100.0 mg/kg/injection, schedule: Q01DX009 (ip), vehicle: Klucel (hydroxypropylcellulose) (HPC)
[12] = dose: 200.0 mg/kg/injection, schedule: Q01DX009 (ip), vehicle: Klucel (hydroxypropylcellulose) (HPC)

Measured: T/C

c1ccc([P+](c2ccccc2)(c2ccccc2)c2ccc(-c3ccc([P+](c4ccccc4)(c4ccccc4)c4ccccc4)cc3)cc2)cc1
inactive: dose: 1.25 mg/kg/injection, schedule: Q01DX009 (ip), vehicle: Klucel (hydroxypropylcellulose) (HPC) 102 % of control | dose: 3.5 mg/kg/injection, schedule: Q01DX009 (ip), vehicle: Klucel (hydroxypropylcellulose) (HPC) 105 % of control

CC(C(O)c1ccc(Br)cc1)C(O)(C(F)(F)F)C(F)(F)F (configuration not stated)
inactive: dose: 100.0 mg/kg/injection, schedule: Q01DX009 (ip), vehicle: other 111 % of control | dose: 200.0 mg/kg/injection, schedule: Q01DX009 (ip), vehicle: other 97 % of control | dose: 400.0 mg/kg/injection, schedule: Q01DX009 (ip), vehicle: other 103 % of control

CC1(C)C2CC3CC(C(=O)O)C(C(=O)O)CC3(C2)C1Br (configuration not stated)
inactive: dose: 100.0 mg/kg/injection, schedule: Q04DX003 (ip), vehicle: Klucel (hydroxypropylcellulose) (HPC) 101 % of control | dose: 200.0 mg/kg/injection, schedule: Q04DX003 (ip), vehicle: Klucel (hydroxypropylcellulose) (HPC) 101 % of control | dose: 400.0 mg/kg/injection, schedule: Q04DX003 (ip), vehicle: Klucel (hydroxypropylcellulose) (HPC) 101 % of control

CC(C)(C)C(=O)C(O)C(C)(C)C (configuration not stated)
inactive: [1] 95 % of control | [2] 97 % of control | dose: 400.0 mg/kg/injection, schedule: Q01DX001 (ip), vehicle: saline 93 % of control

CC1(C)N=C(N)N=C(N)N1c1cccc(OCc2cccc([N+](=O)[O-])c2)c1
inactive: dose: 5.0 mg/kg/injection, schedule: Q01DX001 (ip), vehicle: saline 104 % of control | dose: 10.0 mg/kg/injection, schedule: Q01DX001 (ip), vehicle: saline 98 % of control | dose: 20.0 mg/kg/injection, schedule: Q01DX001 (ip), vehicle: saline 110 % of control | dose: 40.0 mg/kg/injection, schedule: Q01DX001 (ip), vehicle: saline 89 % of control | [1] 96 % of control

COC(=O)C(Br)CCBr (configuration not stated)
inactive: [3] 94 % of control | [4] 94 % of control | [5] 95 % of control | [6] 101 % of control | [7] 100 % of control | [8] 105 % of control

CN(C(N)=O)c1c(O)nc(N)[nH]c1=O
inactive: dose: 25.0 mg/kg/injection, schedule: Q01DX009 (ip), vehicle: water 98 % of control | dose: 50.0 mg/kg/injection, schedule: Q01DX009 (ip), vehicle: water 98 % of control | dose: 50.0 mg/kg/injection, schedule: Q04DX003 (ip), vehicle: water 108 % of control | dose: 100.0 mg/kg/injection, schedule: Q01DX009 (ip), vehicle: water 102 % of control | dose: 100.0 mg/kg/injection, schedule: Q04DX003 (ip), vehicle: water 97 % of control | dose: 150.0 mg/kg/injection, schedule: Q01DX009 (ip), vehicle: water 105 % of control | dose: 200.0 mg/kg/injection, schedule: Q04DX003 (ip), vehicle: water 90 % of control

COC(=O)C(Cc1ccccc1)NC(=O)CNC(=O)CNC(=O)OCc1ccccc1 (stereo not drawn) (Cbz-Gly-Gly-[ξF]-OMe)
inactive: dose: 100.0 mg/kg/injection, schedule: Q04DX003 (ip), vehicle: other 98 % of control | dose: 200.0 mg/kg/injection, schedule: Q04DX003 (ip), vehicle: other 97 % of control | dose: 400.0 mg/kg/injection, schedule: Q04DX003 (ip), vehicle: other 106 % of control

CC1(Br)Cc2ccccc2C1=O (configuration not stated)
inactive: [4] 107 % of control | [6] 94 % of control | [8] 103 % of control

CCOC(=O)CNCc1cccc(Br)c1
inactive: dose: 50.0 mg/kg/injection, schedule: Q01DX005 (ip), vehicle: saline 98 % of control | dose: 100.0 mg/kg/injection, schedule: Q01DX005 (ip), vehicle: saline 112 % of control | dose: 200.0 mg/kg/injection, schedule: Q01DX005 (ip), vehicle: saline 102 % of control | dose: 400.0 mg/kg/injection, schedule: Q01DX005 (ip), vehicle: saline 100 % of control

CC1C2C=CC1C(c1c3ccc(=O)c(O)c-3oc3c(O)c(O)ccc13)C2C(=O)O (configuration not stated)
inactive: dose: 100.0 mg/kg/injection, schedule: Q04DX003 (ip), vehicle: saline 105 % of control | dose: 200.0 mg/kg/injection, schedule: Q04DX003 (ip), vehicle: saline 103 % of control | dose: 400.0 mg/kg/injection, schedule: Q04DX003 (ip), vehicle: saline 100 % of control

N#CC(Nc1ccccc1)C1CC1c1ccccc1 (configuration not stated)
inactive: dose: 12.5 mg/kg/injection, schedule: Q01DX009 (ip), vehicle: saline with Tween-80 94 % of control | dose: 12.5 mg/kg/injection, schedule: Q04DX003 (ip), vehicle: saline with Tween-80 98 % of control | dose: 25.0 mg/kg/injection, schedule: Q01DX009 (ip), vehicle: saline with Tween-80 100 % of control | dose: 25.0 mg/kg/injection, schedule: Q04DX003 (ip), vehicle: saline with Tween-80 102 % of control | dose: 50.0 mg/kg/injection, schedule: Q01DX009 (ip), vehicle: saline with Tween-80 95 % of control | dose: 50.0 mg/kg/injection, schedule: Q04DX003 (ip), vehicle: saline with Tween-80 101 % of control

COC(=O)CC1CC(C=O)C1 (configuration not stated)
inactive: [9] 105 % of control | [10] 102 % of control | dose: 400.0 mg/kg/injection, schedule: Q04DX002 (ip), vehicle: saline 105 % of control

CCOC(OCC)c1nc(N)c2cnn(C)c2n1
inactive: dose: 6.25 mg/kg/injection, schedule: Q01DX009 (ip), vehicle: saline 89 % of control | dose: 12.5 mg/kg/injection, schedule: Q01DX009 (ip), vehicle: saline 97 % of control | dose: 25.0 mg/kg/injection, schedule: Q01DX009 (ip), vehicle: saline 106 % of control and 110 % of control | dose: 50.0 mg/kg/injection, schedule: Q01DX009 (ip), vehicle: saline 94 % of control | [9] 112 % of control

CCOC(=O)c1c[nH]c(=O)c([N+](=O)[O-])c1O
inactive: [3] 98 % of control | [4] 96 % of control | [5] 109 % of control | [6] 98 % of control | [7] 92 % of control | [8] 90 % of control

CCOC(=O)C(CCN(C)Cc1ccccc1)C(=O)OCC
inactive: [11] 97 % of control | [12] 100 % of control | dose: 400.0 mg/kg/injection, schedule: Q01DX009 (ip), vehicle: Klucel (hydroxypropylcellulose) (HPC) 106 % of control

CCCCCP(=O)(O)O
inactive: [9] 92 % of control | [10] 99 % of control

CCCCOC(=O)c1[nH]cnc1N
inactive: [1] 114 % of control | [2] 110 % of control

O=C1CCNc2cc(Cl)ccc21
inactive: dose: 100.0 mg/kg/injection, schedule: Q01DX001 (ip), vehicle: Klucel (hydroxypropylcellulose) (HPC) 96 % of control | [11] 98 % of control | dose: 200.0 mg/kg/injection, schedule: Q01DX001 (ip), vehicle: Klucel (hydroxypropylcellulose) (HPC) 95 % of control | [12] 95 % of control | dose: 400.0 mg/kg/injection, schedule: Q01DX001 (ip), vehicle: Klucel (hydroxypropylcellulose) (HPC) 104 % of control

Cc1sc(Cc2ccccc2)nc1-c1ccc(N=Cc2ccc(N(CCCl)CCCl)cc2)cc1
inactive: dose: 100.0 mg/kg/injection, schedule: Q01DX001 (ip), vehicle: carboxymethylcellulose (CMC) 104 % of control | dose: 200.0 mg/kg/injection, schedule: Q01DX001 (ip), vehicle: carboxymethylcellulose (CMC) 98 % of control | dose: 400.0 mg/kg/injection, schedule: Q01DX001 (ip), vehicle: carboxymethylcellulose (CMC) 95 % of control
